Assays:
[1] = Absorptive permeability across traditional 21 day Caco-2 cell model; conditions: human
[2] = Absorptive permeability across 7 day fast model; conditions: human, Caco-2
[3] = cited from earlier work

SMILES	Papp A→B at 25 μM [1]	Papp A→B at 25 μM [2]	FA (human absorption fraction) [3]
CC(NC(C)(C)C)C(=O)c1cccc(Cl)c1 (stereo not shown) [Bupropion]	16.6 ± 0.99 ×10⁻⁶ cm/s	12.9 ± 0.48 ×10⁻⁶ cm/s	
NC(=O)N1c2ccccc2C=Cc2ccccc21 [Carbamazepine]	20.9 ± 1.93 ×10⁻⁶ cm/s	19.5 ± 0.87 ×10⁻⁶ cm/s	100%
O=C(N[C@H](CO)[C@H](O)c1ccc([N+](=O)[O-])cc1)C(Cl)Cl [Chloramphenicol]	8.17 ± 0.06 ×10⁻⁶ cm/s	7.12 ± 0.04 ×10⁻⁶ cm/s	
CCc1cc(C(N)=S)ccn1 [Ethionamide]	23.8 ± 0.94 ×10⁻⁶ cm/s	20.4 ± 5.5 ×10⁻⁶ cm/s	80%
CCOC(=O)C1=C(C)NC(C)=C(C(=O)OC)C1c1cccc(Cl)c1Cl (stereo not shown) [Felodipine]	4.34 ± 0.63 ×10⁻⁶ cm/s		
CC(=O)N1CCN(c2ccc(OCC3COC(Cn4ccnc4)(c4ccc(Cl)cc4Cl)O3)cc2)CC1 (stereo not shown) [Ketoconazole]	9.61 ± 0.01 ×10⁻⁶ cm/s	8.33 ± 0.93 ×10⁻⁶ cm/s	76%
CC(C(=O)O)c1cccc(C(=O)c2ccccc2)c1 (stereo not shown) [Ketoprofen]	19.2 ± 1.93 ×10⁻⁶ cm/s	15 ± 1.97 ×10⁻⁶ cm/s	
Nc1nnc(-c2cccc(Cl)c2Cl)c(N)n1 [Lamotrigine]			98%
COCCc1ccc(OCC(O)CNC(C)C)cc1 (stereo not shown) [Metoprolol]	12.1 ± 0.39 ×10⁻⁶ cm/s	11.8 ± 0.25 ×10⁻⁶ cm/s	
COc1ccc2[nH]c([S+]([O-])Cc3ncc(C)c(OC)c3C)nc2c1 (stereo not shown) [Omeprazole]	12.6 ± 2.01 ×10⁻⁶ cm/s	11.4 ± 0.47 ×10⁻⁶ cm/s	80%
CC(C)NCC(O)COc1cccc2ccccc12 (stereo not shown) [Propranolol]	10.6 ± 1.66 ×10⁻⁶ cm/s	9.37 ± 0.03 ×10⁻⁶ cm/s	
COC(=O)[C@H]1[C@H]2C[C@@H]3c4[nH]c5cc(OC)ccc5c4CCN3C[C@H]2C[C@@H](OC(=O)c2cc(OC)c(OC)c(OC)c2)[C@@H]1OC [Reserpine]	3.5 ± 0.69 ×10⁻⁶ cm/s	3.6 ± 0.43 ×10⁻⁶ cm/s	50%
Nc1ccc(S(=O)(=O)Nc2ncccn2)cc1 [Sulfadiazine]	9.76 ± 1.05 ×10⁻⁶ cm/s		65%
CC(C)(C)NCC(O)c1cc(O)cc(O)c1 (stereo not shown) [Terbutaline]	15.6 ± 1.28 ×10⁻⁶ cm/s	16.6 ± 0.7 ×10⁻⁶ cm/s	73%
CC(=O)CC(c1ccccc1)c1c(O)c2ccccc2oc1=O (stereo not shown) [Warfarin sodium]	15.31 ± 0.002 ×10⁻⁶ cm/s	14.44 ± 0.11 ×10⁻⁶ cm/s	

Reference: publication PMC9086926 (RSC Advances, 2018)
